Results reported in patent publication US20240209001A1, “HETEROCYCLIC DERIVATIVES AS JANUS KINASE INHIBITORS” (CHIESI FARMACEUTICI S.P. A., priority 2021, published 2024).

How the values were obtained:
JAK 2 = JAK 2 (Homo sapiens (Human), UniProt O60674); assay: Biochemical potency on JAK2, TR-FRET LANCE Ultra kinase assay (compounds 1-92); conditions: ATP at Km, read-out: JAK2 inhibitory activity (pIC50 class) (converted)
Procedure, shortened: (§1)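 TR-FRET (LANCE Ultra) phosphorylation of ULight-JAK-1 peptide, ATP at Km: JAK1/JAK2/JAK3/TYK2 peptide 30/50/20/10 nM, ATP 20/0.7/0.2/12 μM, enzyme 0.15/0.083/0.025/0.144 ng/μL. 11-point 5-fold series from 20 μM; 1.5 h RT, EDTA stop, Eu-anti-pTyr detection 1 h; IC50 by variable-slope fit.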

TYK2 = TYK2 (Homo sapiens (Human), UniProt P29597); assay: Biochemical potency on Tyk2, TR-FRET LANCE Ultra kinase assay (compounds 1-92); conditions: ATP at Km, read-out: Tyk2 inhibitory activity (pIC50 class) (converted)
Procedure, shortened: as §1

JAK 3 = JAK 3 (Homo sapiens (Human), UniProt P52333); assay: Biochemical potency on JAK3, TR-FRET LANCE Ultra kinase assay (compounds 1-92); conditions: ATP at Km, read-out: JAK3 inhibitory activity (pIC50 class) (converted)
Procedure, shortened: as §1

JAK 1 = JAK 1 (Homo sapiens (Human), UniProt P23458); assay: Biochemical potency on JAK1, TR-FRET LANCE Ultra kinase assay (compounds 1-92); conditions: ATP at Km, read-out: JAK1 inhibitory activity (pIC50 class) (converted)
Procedure, shortened: as §1

JAK 1, sequence (P23458 whole entry): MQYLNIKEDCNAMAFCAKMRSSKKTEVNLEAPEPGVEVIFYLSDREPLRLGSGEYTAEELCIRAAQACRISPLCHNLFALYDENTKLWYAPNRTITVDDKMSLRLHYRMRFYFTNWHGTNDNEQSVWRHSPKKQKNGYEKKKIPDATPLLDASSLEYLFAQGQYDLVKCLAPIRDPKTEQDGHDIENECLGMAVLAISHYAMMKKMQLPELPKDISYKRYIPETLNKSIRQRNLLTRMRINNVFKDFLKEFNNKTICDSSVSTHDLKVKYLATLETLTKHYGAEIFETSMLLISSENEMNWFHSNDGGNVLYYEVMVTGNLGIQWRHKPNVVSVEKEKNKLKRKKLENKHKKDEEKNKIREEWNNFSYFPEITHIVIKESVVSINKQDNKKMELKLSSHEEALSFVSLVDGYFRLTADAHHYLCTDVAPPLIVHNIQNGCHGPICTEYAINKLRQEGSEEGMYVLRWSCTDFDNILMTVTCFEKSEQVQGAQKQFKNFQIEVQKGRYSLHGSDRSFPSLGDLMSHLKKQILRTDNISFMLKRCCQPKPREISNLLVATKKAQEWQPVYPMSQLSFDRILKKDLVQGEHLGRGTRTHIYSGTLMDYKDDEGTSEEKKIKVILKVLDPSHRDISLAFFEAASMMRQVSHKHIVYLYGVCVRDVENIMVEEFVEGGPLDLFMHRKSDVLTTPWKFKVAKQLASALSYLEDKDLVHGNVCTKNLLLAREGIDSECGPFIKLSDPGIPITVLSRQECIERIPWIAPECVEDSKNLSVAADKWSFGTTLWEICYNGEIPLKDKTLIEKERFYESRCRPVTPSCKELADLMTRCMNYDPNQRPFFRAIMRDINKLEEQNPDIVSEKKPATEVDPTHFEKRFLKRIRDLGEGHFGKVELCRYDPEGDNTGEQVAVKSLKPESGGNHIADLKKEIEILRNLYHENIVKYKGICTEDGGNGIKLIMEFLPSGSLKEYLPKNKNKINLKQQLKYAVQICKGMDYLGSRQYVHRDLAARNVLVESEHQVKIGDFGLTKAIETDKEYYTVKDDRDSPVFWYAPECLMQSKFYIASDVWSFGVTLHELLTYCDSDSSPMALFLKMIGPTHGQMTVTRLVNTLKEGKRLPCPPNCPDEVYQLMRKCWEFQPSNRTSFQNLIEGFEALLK
TYK2, sequence (P29597 whole entry): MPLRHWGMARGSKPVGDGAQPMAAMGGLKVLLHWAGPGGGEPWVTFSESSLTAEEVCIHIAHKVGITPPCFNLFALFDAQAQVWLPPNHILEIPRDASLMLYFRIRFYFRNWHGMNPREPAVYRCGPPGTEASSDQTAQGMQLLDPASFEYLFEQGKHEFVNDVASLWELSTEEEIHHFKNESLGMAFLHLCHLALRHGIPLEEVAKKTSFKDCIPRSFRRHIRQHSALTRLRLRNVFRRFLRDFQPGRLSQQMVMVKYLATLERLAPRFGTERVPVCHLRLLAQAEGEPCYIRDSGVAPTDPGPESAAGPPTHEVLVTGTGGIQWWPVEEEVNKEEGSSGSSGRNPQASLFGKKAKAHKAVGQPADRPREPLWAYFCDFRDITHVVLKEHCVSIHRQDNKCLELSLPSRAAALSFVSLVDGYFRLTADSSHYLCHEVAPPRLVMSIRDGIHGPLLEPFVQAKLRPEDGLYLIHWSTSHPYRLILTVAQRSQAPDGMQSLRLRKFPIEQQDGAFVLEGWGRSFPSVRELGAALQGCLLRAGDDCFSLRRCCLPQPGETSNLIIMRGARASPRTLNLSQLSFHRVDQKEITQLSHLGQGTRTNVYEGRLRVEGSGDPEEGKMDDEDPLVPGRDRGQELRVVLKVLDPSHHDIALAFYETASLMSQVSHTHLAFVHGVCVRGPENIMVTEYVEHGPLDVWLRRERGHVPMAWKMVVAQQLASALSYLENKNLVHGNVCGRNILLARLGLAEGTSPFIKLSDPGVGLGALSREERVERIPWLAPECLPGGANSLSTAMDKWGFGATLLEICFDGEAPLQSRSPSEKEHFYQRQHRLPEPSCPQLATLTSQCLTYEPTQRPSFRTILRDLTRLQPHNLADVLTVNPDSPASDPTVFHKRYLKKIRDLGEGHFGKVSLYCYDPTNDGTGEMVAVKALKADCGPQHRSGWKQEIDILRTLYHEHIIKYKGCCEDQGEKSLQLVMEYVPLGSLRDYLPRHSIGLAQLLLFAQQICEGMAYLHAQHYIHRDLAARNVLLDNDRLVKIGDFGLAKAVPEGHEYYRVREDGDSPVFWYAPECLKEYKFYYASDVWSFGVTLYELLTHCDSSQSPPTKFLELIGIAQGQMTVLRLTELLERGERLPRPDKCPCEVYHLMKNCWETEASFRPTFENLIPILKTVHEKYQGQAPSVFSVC
JAK 2, sequence (O60674 whole entry): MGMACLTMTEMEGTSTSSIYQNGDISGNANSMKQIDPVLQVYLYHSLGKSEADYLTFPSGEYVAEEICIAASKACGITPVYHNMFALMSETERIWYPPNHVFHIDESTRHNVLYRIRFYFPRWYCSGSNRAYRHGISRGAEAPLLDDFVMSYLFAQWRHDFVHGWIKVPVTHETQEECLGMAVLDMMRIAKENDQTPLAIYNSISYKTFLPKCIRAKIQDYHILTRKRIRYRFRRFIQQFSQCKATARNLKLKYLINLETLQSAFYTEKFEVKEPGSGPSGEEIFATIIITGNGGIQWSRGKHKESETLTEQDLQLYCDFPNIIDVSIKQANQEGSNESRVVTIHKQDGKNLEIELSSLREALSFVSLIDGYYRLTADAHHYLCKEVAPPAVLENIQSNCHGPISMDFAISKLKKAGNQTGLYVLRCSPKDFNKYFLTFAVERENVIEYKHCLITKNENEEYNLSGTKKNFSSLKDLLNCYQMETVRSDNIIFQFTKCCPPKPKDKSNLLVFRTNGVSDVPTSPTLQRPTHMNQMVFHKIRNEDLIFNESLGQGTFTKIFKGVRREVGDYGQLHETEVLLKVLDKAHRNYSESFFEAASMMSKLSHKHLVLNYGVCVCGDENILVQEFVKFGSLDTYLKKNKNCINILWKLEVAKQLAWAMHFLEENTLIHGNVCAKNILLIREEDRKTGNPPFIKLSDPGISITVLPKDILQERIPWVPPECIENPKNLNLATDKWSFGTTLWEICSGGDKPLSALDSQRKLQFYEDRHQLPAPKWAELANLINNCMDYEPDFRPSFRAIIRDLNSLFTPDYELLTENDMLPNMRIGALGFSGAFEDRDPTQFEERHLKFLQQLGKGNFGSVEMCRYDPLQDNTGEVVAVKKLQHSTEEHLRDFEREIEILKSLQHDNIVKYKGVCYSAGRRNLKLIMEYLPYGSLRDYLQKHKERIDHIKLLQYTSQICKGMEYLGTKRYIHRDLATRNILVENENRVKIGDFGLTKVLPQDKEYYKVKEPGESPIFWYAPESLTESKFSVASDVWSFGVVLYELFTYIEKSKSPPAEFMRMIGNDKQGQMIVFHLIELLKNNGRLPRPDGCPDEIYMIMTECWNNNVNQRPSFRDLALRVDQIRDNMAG
JAK 3, sequence (P52333 whole entry): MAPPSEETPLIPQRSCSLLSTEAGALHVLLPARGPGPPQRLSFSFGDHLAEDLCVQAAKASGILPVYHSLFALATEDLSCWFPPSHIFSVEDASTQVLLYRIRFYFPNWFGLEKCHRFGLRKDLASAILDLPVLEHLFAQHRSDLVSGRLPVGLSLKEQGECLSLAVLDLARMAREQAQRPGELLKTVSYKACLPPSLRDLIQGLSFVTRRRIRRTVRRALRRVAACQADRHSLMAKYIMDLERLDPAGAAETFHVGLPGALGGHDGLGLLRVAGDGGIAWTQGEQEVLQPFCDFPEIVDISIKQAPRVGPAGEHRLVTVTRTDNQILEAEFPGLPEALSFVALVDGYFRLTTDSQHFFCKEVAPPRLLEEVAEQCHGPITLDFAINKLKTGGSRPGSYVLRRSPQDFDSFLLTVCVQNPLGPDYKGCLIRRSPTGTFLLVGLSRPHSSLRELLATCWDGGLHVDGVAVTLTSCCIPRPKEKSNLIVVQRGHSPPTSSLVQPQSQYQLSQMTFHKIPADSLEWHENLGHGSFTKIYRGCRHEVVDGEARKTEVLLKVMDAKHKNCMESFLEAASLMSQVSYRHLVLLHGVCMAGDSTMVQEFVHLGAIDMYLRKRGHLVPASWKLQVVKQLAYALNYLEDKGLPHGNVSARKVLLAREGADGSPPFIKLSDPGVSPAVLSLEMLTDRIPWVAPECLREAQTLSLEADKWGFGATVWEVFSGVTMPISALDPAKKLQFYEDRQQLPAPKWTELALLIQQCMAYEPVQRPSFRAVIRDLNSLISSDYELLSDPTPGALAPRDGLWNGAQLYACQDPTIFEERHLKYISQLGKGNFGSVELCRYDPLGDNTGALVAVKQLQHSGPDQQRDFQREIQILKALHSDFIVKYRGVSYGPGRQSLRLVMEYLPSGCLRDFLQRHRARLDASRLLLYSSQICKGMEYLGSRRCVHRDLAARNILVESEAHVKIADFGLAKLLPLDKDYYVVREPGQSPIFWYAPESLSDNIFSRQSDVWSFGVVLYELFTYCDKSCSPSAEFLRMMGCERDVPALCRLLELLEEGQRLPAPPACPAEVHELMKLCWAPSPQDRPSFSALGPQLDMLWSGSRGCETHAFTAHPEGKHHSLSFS

Structure (SMILES) | IC50 (JAK 2) [nM] | IC50 (TYK2) [nM] | IC50 (JAK 3) [nM] | IC50 (JAK 1) [nM]
COc1cc(NS(=O)(=O)C2CC2)ccc1-n1nc(CC#N)c2cnc(-c3cnn4cccnc34)cc21 [Example 84, N-(4-(3-(cyanomethyl)-6-(pyrazolo[1,5-a]pyrimidin-3-yl)-1H-pyrazolo[4,3-c]pyridin-1-yl)-3-methoxyphenyl)cyclopropanesulfonamide] | ≤ 5.01 | 5.01 to 50.1 | 5.01 to 50.1 | ≤ 5.01
COc1cc(C(=O)Nc2ccccc2)ccc1-n1nc(C)c2cnc(-c3cnn4cccnc34)cc21 [Example 20, 3-methoxy-4-(3-methyl-6-(pyrazolo[1,5-a]pyrimidin-3-yl)-1H-pyrazolo[4,3-c]pyridin-1-yl)-N-phenylbenzamide] | 5.01 to 50.1 | > 50.1 | 5.01 to 50.1 | 5.01 to 50.1
CCCS(=O)(=O)Nc1ccc(-n2nc(NCCN3CCOCC3)c3cnc(Nc4ncc[nH]c4=O)cc32)c(OC(F)F)c1 [Example 89, N-(3-(difluoromethoxy)-4-(3-((2-morpholinoethyl)amino)-6-((3-oxo-3,4-dihydropyrazin-2-yl)amino)-1H-pyrazolo[4,3-c]pyridin-1-yl)phenyl)propane-1-sulfonamide] | ≤ 5.01 | 5.01 to 50.1 | ≤ 5.01 | ≤ 5.01
CCCS(=O)(=O)Nc1ccc(-n2nc(NCCN3CCCCC3)c3cnc(Nc4ncc[nH]c4=O)cc32)c(OC)c1 [Example 88, N-(3-methoxy-4-(6-((3-oxo-3,4-dihydropyrazin-2-yl)amino)-3-((2-(piperidin-1-yl)ethyl)amino)-1H-pyrazolo[4,3-c]pyridin-1-yl)phenyl)propane-1-sulfonamide] | ≤ 5.01 | 5.01 to 50.1 | ≤ 5.01 | ≤ 5.01
COc1cc(NS(=O)(=O)CC2CCCO2)ccc1-n1nc(C)c2cnc(-c3cnn4cccnc34)cc21 (stereo not shown) [Example 2, N-(3-methoxy-4-(3-methyl-6-(pyrazolo[1,5-a]pyrimidin-3-yl)-1H-pyrazolo[4,3-c]pyridin-1-yl)phenyl)-1-(tetrahydrofuran-2-yl)methanesulfonamide] | ≤ 5.01 | 5.01 to 50.1 | 5.01 to 50.1 | 5.01 to 50.1
COc1cc(CNS(C)(=O)=O)ccc1-n1nc(NCCN2CCOCC2)c2cnc(Nc3ncc[nH]c3=O)cc21 [Example 92, N-(3-methoxy-4-(3-((2-morpholinoethyl)amino)-6-((3-oxo-3,4-dihydropyrazin-2-yl)amino)-1H-pyrazolo[4,3-c]pyridin-1-yl)benzyl)methanesulfonamide] | ≤ 5.01 | ≤ 5.01 | ≤ 5.01 | ≤ 5.01
CNc1cc(OC)c(-n2nc(C)c3cnc(-c4cnn5cccnc45)cc32)cn1 [Example 16, 4-methoxy-N-methyl-5-(3-methyl-6-(pyrazolo[1,5-a]pyrimidin-3-yl)-1H-pyrazolo[4,3-c]pyridin-1-yl)pyridin-2-amine] | 5.01 to 50.1 | > 50.1 | 5.01 to 50.1 | 5.01 to 50.1
COc1cc(CNS(=O)(=O)CC#N)ccc1-n1nc(C)c2cnc(-c3cnn4cccnc34)cc21 [Example 68, 1-cyano-N-(3-methoxy-4-(3-methyl-6-(pyrazolo[1,5-a]pyrimidin-3-yl)-1H-pyrazolo[4,3-c]pyridin-1-yl)benzyl)methanesulfonamide] | ≤ 5.01 | 5.01 to 50.1 | ≤ 5.01 | ≤ 5.01
CNC(=O)NCc1ccc(-n2nc(C)c3cnc(-c4cnn5cccnc45)cc32)c(OC)c1 [Example 71, 1-(3-methoxy-4-(3-methyl-6-(pyrazolo[1,5-a]pyrimidin-3-yl)-1H-pyrazolo[4,3-c]pyridin-1-yl)benzyl)-3-methylurea] | 5.01 to 50.1 | > 50.1 | 5.01 to 50.1 | 5.01 to 50.1
COc1cc(CNC(C)=O)ccc1-n1nc(C)c2cnc(-c3cnn4cccnc34)cc21 [Example 70, N-(3-methoxy-4-(3-methyl-6-(pyrazolo[1,5-a]pyrimidin-3-yl)-1H-pyrazolo[4,3-c]pyridin-1-yl)benzyl)acetamide] | > 50.1 | > 50.1 | > 50.1 | > 50.1
COc1cc(CNS(C)(=O)=O)c(Cl)cc1-n1nc(NCCN2CCOCC2)c2cnc(-c3cnn4cccnc34)cc21 [Example 58, N-(2-chloro-5-methoxy-4-(3-((2-morpholinoethyl)amino)-6-(pyrazolo[1,5-a]pyrimidin-3-yl)-1H-pyrazolo[4,3-c]pyridin-1-yl)benzyl)methanesulfonamide] | 5.01 to 50.1 | 5.01 to 50.1 | 5.01 to 50.1 | ≤ 5.01

Second part, the compound after the results:

IC50 (JAK 2) [nM] | IC50 (TYK2) [nM] | IC50 (JAK 3) [nM] | IC50 (JAK 1) [nM] | Structure (SMILES)
≤ 5.01 | 5.01 to 50.1 | 5.01 to 50.1 | ≤ 5.01 | CNc1nn(-c2ccc(NS(=O)(=O)C3CC3)cc2OC)c2cc(-c3cnn4cccnc34)ncc12 [Example 35, N-(3-methoxy-4-(3-(methylamino)-6-(pyrazolo[1,5-a]pyrimidin-3-yl)-1H-pyrazolo[4,3-c]pyridin-1-yl)phenyl)cyclopropanesulfonamide]
≤ 5.01 | 5.01 to 50.1 | ≤ 5.01 | ≤ 5.01 | COc1cc(NS(C)(=O)=O)ccc1-n1nc(NCCN2C3CCC2COC3)c2cnc(-c3cnn4cccnc34)cc21 [Example 30, N-(4-(3-((2-(3-oxa-8-azabicyclo[3.2.1]octan-8-yl)ethyl)amino)-6-(pyrazolo[1,5-a]pyrimidin-3-yl)-1H-pyrazolo[4,3-c]pyridin-1-yl)-3-methoxyphenyl)methanesulfonamide]
≤ 5.01 | 5.01 to 50.1 | ≤ 5.01 | ≤ 5.01 | COc1cc(NS(C)(=O)=O)ccc1-n1nc(C(=O)NCCN(C)C)c2cnc(-c3cnn4cccnc34)cc21 [Example 44, N-(2-(dimethylamino)ethyl)-1-(2-methoxy-4-(methylsulfonamido)phenyl)-6-(pyrazolo[1,5-a]pyrimidin-3-yl)-1H-pyrazolo[4,3-c]pyridine-3-carboxamide]
≤ 5.01 | 5.01 to 50.1 | ≤ 5.01 | ≤ 5.01 | COc1cc(CNS(C)(=O)=O)ccc1-n1nc(CC#N)c2cnc(-c3cnn4cccnc34)cc21 [Example 60, N-(4-(3-(cyanomethyl)-6-(pyrazolo[1,5-a]pyrimidin-3-yl)-1H-pyrazolo[4,3-c]pyridin-1-yl)-3-methoxybenzyl)methanesulfonamide]
≤ 5.01 | 5.01 to 50.1 | ≤ 5.01 | ≤ 5.01 | CCCS(=O)(=O)Nc1ccc(-n2nc(CNC)c3cnc(-c4cnn5cccnc45)cc32)c(OC)c1 [Example 83, N-(3-methoxy-4-(3-((methylamino)methyl)-6-(pyrazolo[1,5-a]pyrimidin-3-yl)-1H-pyrazolo[4,3-c]pyridin-1-yl)phenyl)propane-1-sulfonamide]
≤ 5.01 | 5.01 to 50.1 | ≤ 5.01 | ≤ 5.01 | COc1cc(NS(C)(=O)=O)ccc1-n1nc(NCCO)c2cnc(-c3cnn4cccnc34)cc21 [Example 26, N-(4-(3-((2-hydroxyethyl)amino)-6-(pyrazolo[1,5-a]pyrimidin-3-yl)-1H-pyrazolo[4,3-c]pyridin-1-yl)-3-methoxyphenyl)methanesulfonamide]
≤ 5.01 | 5.01 to 50.1 | ≤ 5.01 | ≤ 5.01 | COc1cc(NS(C)(=O)=O)ccc1-n1nc(C(=O)NCCN2CCOCC2)c2cnc(-c3cnn4cccnc34)cc21 [Example 45, 1-(2-methoxy-4-(methylsulfonamido)phenyl)-N-(2-morpholinoethyl)-6-(pyrazolo[1,5-a]pyrimidin-3-yl)-1H-pyrazolo[4,3-c]pyridine-3-carboxamide]
≤ 5.01 | 5.01 to 50.1 | ≤ 5.01 | ≤ 5.01 | COc1cc(NS(C)(=O)=O)ccc1-n1nc(NCCN(C)C)c2cnc(-c3cnc4cccnn34)cc21 [Example 77, N-(4-(3-((2-(dimethylamino)ethyl)amino)-6-(imidazo[1,2-b]pyridazin-3-yl)-1H-pyrazolo[4,3-c]pyridin-1-yl)-3-methoxyphenyl)methanesulfonamide]
≤ 5.01 | 5.01 to 50.1 | ≤ 5.01 | ≤ 5.01 | COc1cc(NS(=O)(=O)CCC(N)=O)ccc1-n1nc(C)c2cnc(-c3cnn4cccnc34)cc21 [Example 13, 3-(N-(3-methoxy-4-(3-methyl-6-(pyrazolo[1,5-a]pyrimidin-3-yl)-1H-pyrazolo[4,3-c]pyridin-1-yl)phenyl)sulfamoyl)propanamide]
≤ 5.01 | 5.01 to 50.1 | ≤ 5.01 | ≤ 5.01 | COc1cc(NS(C)(=O)=O)ccc1-n1nc(NCC2CN(C)CCO2)c2cnc(-c3cnn4cccnc34)cc21 (racemic) [Example 28, N-(3-methoxy-4-(3-(((4-methylmorpholin-2-yl)methyl)amino)-6-(pyrazolo[1,5-a]pyrimidin-3-yl)-1H-pyrazolo[4,3-c]pyridin-1-yl)phenyl)methanesulfonamide]
≤ 5.01 | 5.01 to 50.1 | ≤ 5.01 | ≤ 5.01 | COc1cc(NS(C)(=O)=O)ccc1-n1nc(NCCCNC(=O)OC(C)(C)C)c2cnc(-c3cnn4cccnc34)cc21 [Example 21, tert-butyl (3-((1-(2-methoxy-4-(methylsulfonamido)phenyl)-6-(pyrazolo[1,5-a]pyrimidin-3-yl)-1H-pyrazolo[4,3-c]pyridin-3-yl)amino)propyl)carbamate]
